Data on 30 molecules can be found in patent US20040009973A1, “Novel potassium channels modulators” (4SC AG, priority 2002, published 2004).

For assay [1], the target named is T1, BK potassium channel, cloned hSlo (α-hSlo and β-bSlo) in CHO cells (Homo sapiens, UniProt Q12791).
T1 construct: expressed in transfected cells; host or cells: CHO cells, permanently transfected
The assay is described as follows: Em-Assay: membrane potential with voltage sensitive dye DiBAC(4)3, fluorescence plate reader. The assay is classed as cell-based. Conditions: compound 50 μM; NS004 25 or 50 μM; hSlo transfected CHO cells; change in DiBAC(4)3 fluorescence intensity. An excerpt: The large conductance, voltage-dependent and Ca^2+-activated potassium channel BK is a potassium selective ion channel and belongs to the subfamily of KCa channels. Four BK alpha-subunits form a functional channel that can be regulated by intracellular Ca^2+ concentration, membrane voltage, and other mechanisms like phosphorylation states or beta subunits. To test the biological activity of the compounds, we applied two different techniques, a fluorescence based assay using a voltage sensitive dye (Em-Assay) as well as exploiting electrophysiological methods.
CHO cells permanently transfected with cloned hSlo (α-hSlo and β-bSlo), yielding typical BK potassium currents (Zhou et al., Pflügers Arch., 436: 725-734 (1998), were used for the evaluation of compound activity. Activation or inhibition of BK channels in these cells leads to a change of the electrochemical gradient causing a hyperpolarized or depolarised membrane potential, respectively.
To determine changes in the membrane potential of the cells we used the voltage sensitive dye DiBAC(4)3 (Molecular Probes) in a kinetic assay system using a fluorescent plate reader (Manning and Sontheimer, J. Neurosci, Meth., 91: 73-81 (1999). The anionic bis-oxonol DiBAC(4)3 is a voltage sensitive dye which partitions from the extracellular environment into the cell where it reversibly binds to intracellular proteins, a kinetic process depending on the membrane potential of the cell. At depolarised potentials (i.e. at a reduced K^+ efflux due to blocked K^+ channels) the dye accumulates in the cell leading to an increased fluorescence intensity, due to its increased fluorescence if bound to cellular proteins. At hyperpolarized potentials (i.e. at an increased K^+ efflux due to the opening of K^+ channels), the dye partitions out of the cell causing a decreased fluorescence intensity.
hSlo transfected CHO cells where maintained in DMEM supplemented with 10% FCS, 250 μg/ml Geneticin, 100 μg/ml Hygromycin, 1×HT-Supplement, and 1×Non-essential Amino Acids and cultured in a humidified CO2 incubator. After trypsination, cells where plated with a density of 5×10^4 cells per well on a clear 96-well plate and incubated for 24 h. Cells where washed once with PBS, once with PBS containing 20 mM HEPES (adjusted to pH 7.4 with NaOH) and 2 μM DIBAC(4)3 (DPBS-DiBAC solution). 180 μl of the dPBS-DiBAC solution was then added to the cells and the plate incubated for 30-60 min at 37° C. During this time the dye could partition into the cells and reach a certain steady-state distribution, depending on the resting membrane potential. Test and reference compounds were stored as DMSO stock solutions and diluted in dPBS-DiBAC solution to the desired concentration.
Fluorescence intensity (Ex.: 485 nm/Em.: 520 nm) of each well was detected in the plate reader (Fluostar, BMG) every 60 seconds. After recording the baseline fluorescence for 7 minutes, 20 μl test—and reference compounds were added and the fluorescence intensity was detected for additional 15 minutes. Background was subtracted, data values were normalized and expressed as a change in fluorescence intensity against time. The change in fluorescence intensity caused by the test compounds was evaluated, compared to the effect of the reference compound NS004, and the ratio was determined (see Table I).

The target of assay [2] is BK currents, cloned α-hSlo and β-bSlo in CHO cells (Homo sapiens, UniProt Q12791). The assay can be described thus: Electrophysiological studies: whole-cell patch-clamp of BK currents. Format: cell-based. The conditions noted are these: compound 20 μM, steady-state BK current, free internal Ca2+ 1×10^−6M. Here is the method: Electrophysiological Studies:
CHO cells permanently transfected with cloned α-hSlo and β-bSlo were maintained as described above and used for electrophysiological characterisation, The whole-cell configuration of the patch-clamp technique was used to determine the effect of modulators on BK currents in these cells. The cell line expressing functional BK currents (Zhou et al., Pflügers Arch. 436, p.725 (1998)) were plated onto glass cover slips with a density of 1-5×10^4 cells/cover slip, incubated (37° C., 5% CO2) and used for patch-clamp experiments within 24-48 h. Cells were bathed in mammalian ringer solutions containing (in mM): 160NaCl, 4.5KCl, 2CaCl2, 1MgCl2, 10 HEPES, adjusted to pH 7.4, 290-310 mOsm. The internal pipette solution contained (in mM): 160KCl, 2CaCl2, 1MgCl2, 10 HEPES, EGTA was added to reach a free [Ca^2+]internal=1×10^−6M, adjusted to pH 7.2, 290-310 mOsm. Borosilicate pipettes with a resistance of 2-3 MΩ were filled with the internal solution and mounted on an appropriate holder. Prior to measurements a recording chamber was mounted onto the cell-plated cover slips and the cells were perfused with a simple syringe driven perfusion system. Compounds were added in the final concentration ([…]) to the bath solution using the same system. An EPC-9 patch-clamp amplifier with Pulse and PulseFit software (HEKA) was used to record and analyze currents.
After addition of the compounds to the bath solution their modulating effect was determined by the increase or decrease of specific BK currents after reaching steady-state relative to the BK current before application of drugs (see Table II).
(The patch-clamp technique gives a direct electrical read-out from membranes.)

T1 sequence (Q12791 1-1178 isoform Q12791-5): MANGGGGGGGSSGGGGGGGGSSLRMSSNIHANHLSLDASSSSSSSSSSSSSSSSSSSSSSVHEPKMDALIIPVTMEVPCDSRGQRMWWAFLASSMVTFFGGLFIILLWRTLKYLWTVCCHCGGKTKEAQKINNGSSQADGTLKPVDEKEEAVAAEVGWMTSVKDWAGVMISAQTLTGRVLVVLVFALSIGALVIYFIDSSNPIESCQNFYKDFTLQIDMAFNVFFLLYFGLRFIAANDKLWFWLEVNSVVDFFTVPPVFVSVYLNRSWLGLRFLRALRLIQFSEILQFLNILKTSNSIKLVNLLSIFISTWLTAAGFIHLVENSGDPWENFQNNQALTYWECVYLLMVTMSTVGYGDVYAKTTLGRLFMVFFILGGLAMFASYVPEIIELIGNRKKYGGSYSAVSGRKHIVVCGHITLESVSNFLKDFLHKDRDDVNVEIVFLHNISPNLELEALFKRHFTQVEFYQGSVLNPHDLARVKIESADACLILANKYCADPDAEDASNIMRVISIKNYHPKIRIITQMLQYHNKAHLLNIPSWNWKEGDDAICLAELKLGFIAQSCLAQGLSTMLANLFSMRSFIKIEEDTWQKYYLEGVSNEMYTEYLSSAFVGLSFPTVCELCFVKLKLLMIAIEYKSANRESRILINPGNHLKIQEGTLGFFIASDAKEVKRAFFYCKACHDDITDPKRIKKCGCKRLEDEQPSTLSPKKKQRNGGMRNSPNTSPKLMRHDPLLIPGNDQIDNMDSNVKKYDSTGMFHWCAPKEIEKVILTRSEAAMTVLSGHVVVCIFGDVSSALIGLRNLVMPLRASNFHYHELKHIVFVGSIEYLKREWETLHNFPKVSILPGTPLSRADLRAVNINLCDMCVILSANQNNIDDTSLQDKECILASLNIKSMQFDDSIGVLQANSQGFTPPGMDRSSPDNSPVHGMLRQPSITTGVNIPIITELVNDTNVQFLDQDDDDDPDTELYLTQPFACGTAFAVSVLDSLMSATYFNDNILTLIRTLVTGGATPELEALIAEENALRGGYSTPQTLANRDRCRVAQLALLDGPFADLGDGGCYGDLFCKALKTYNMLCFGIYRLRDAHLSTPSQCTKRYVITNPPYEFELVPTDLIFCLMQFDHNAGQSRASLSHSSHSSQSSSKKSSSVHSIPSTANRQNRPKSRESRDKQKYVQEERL
T1 sequence (Q28067 2-191 partner limits assumed): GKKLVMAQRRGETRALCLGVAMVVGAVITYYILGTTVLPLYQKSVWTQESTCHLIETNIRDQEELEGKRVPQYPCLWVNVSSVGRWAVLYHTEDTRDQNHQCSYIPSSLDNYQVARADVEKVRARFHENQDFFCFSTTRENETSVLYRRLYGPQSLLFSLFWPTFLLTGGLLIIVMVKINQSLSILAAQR
Chain of BK currents, cloned α-hSlo and β-bSlo in CHO cells (Q12791 whole entry): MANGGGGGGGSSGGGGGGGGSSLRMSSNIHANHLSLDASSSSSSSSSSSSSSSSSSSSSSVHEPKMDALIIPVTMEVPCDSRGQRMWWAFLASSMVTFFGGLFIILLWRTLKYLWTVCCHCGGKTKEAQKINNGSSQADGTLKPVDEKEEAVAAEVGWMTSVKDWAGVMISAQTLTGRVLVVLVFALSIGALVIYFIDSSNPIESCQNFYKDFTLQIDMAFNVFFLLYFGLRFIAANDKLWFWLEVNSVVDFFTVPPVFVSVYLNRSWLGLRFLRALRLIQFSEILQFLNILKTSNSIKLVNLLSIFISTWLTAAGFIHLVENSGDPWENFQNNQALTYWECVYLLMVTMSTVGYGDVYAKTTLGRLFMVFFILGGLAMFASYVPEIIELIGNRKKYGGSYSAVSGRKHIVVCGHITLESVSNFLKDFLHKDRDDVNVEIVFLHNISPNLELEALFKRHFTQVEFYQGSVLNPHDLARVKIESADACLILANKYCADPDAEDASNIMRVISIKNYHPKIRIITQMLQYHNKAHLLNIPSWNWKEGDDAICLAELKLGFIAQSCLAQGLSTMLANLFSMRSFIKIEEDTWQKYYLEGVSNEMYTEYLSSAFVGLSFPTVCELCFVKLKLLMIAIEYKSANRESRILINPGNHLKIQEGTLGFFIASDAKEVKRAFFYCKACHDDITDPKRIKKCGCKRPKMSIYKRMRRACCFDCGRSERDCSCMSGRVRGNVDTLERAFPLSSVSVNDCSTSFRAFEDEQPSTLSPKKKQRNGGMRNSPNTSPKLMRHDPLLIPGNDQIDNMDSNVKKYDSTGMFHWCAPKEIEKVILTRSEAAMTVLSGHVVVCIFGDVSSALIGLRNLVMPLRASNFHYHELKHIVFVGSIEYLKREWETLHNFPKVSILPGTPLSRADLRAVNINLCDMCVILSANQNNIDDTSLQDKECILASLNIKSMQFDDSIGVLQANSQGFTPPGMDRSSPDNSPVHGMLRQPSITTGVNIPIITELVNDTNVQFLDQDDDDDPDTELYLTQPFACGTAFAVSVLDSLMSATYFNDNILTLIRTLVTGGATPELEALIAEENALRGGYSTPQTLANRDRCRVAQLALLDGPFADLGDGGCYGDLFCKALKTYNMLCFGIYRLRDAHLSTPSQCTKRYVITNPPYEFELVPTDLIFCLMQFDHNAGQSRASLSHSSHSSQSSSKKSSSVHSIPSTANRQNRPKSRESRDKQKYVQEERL
Chain of BK currents, cloned α-hSlo and β-bSlo in CHO cells (Q28067 2-191 partner): as the sequence (Q28067 2-191 partner limits assumed) above

Turning to `Clc1cc(NCc2ccc(Br)cc2)ccc1NCc1ccc(Br)cc1` [Compound 13, N^1,N^4-Bis-(4-bromobenzyl)-2-chlorobenzene-1,4-diamine], in assay [1], the “Em effect: ratio of the compound effect compared to the maximal effect of NS004” value (“Em effect: ratio of the compound effect” for short) is given as “+++ (>1.5 = +++)”. For the same molecule, the “Effect: ratio of current increase after application of compound relative to the control current before compound application” value in assay [2] is on record as “+++ (>1.2 = +++)”.

Take `Clc1cccc(CNc2cccc(NCc3cccc(Cl)c3)c2)c1` [Compound 11]: the “Em effect: ratio of the compound effect” value in assay [1] is “+ (0-1 = +)”. The “Effect: ratio of current increase after application of compound relative to the control current before compound application” value in assay [2] is listed as “+ (1-1.1 = +)”.

In the case of `Clc1cc(NCc2ccc3ccccc3c2)ccc1NCc1ccc2ccccc2c1` [Compound 15], the “Em effect: ratio of the compound effect” value in assay [1] is recorded as “+++ (>1.5 = +++)”. Moreover, the “Effect: ratio of current increase after application of compound relative to the control current before compound application” value in assay [2] is given as “+ (1-1.1 = +)”.

Regarding `FC(F)(F)c1cc(NCc2cccc(Cl)c2)cc(NCc2ccc3ccccc3c2)c1` [Compound 7, N-(3-Chlorobenzyl)-N′-naphthalen-2-ylmethyl-5-trifluoromethyl-benzene-1,3-diamine], in assay [1], the “Em effect: ratio of the compound effect” value is “+++ (>1.5 = +++)”. For the same molecule, the “Effect: ratio of current increase after application of compound relative to the control current before compound application” value in assay [2] was “+ (1-1.1 = +)”.

Turning to `Fc1cccc(CNc2cccc(NCc3cccc(F)c3)c2)c1` [Compound 35, N,N′-bis-(3-fluorobenzyl)-benzene-1,3-diaimine], in assay [1], the “Em effect: ratio of the compound effect” value is “++ (>1-1.5 = ++)”. In assay [2], the “Effect: ratio of current increase after application of compound relative to the control current before compound application” value is given as “+++ (>1.2 = +++)”.

`Clc1cccc(CNc2ccc(NCc3cccc(Cl)c3)c(Cl)c2)c1` [Compound 14]: in assay [1], the “Em effect: ratio of the compound effect” value is “+++ (>1.5 = +++)”. The “Effect: ratio of current increase after application of compound relative to the control current before compound application” value in assay [2] is listed as “+ (1-1.1 = +)”.

With `Fc1ccc(CNc2cccc(NCc3cccc(Cl)c3)c2)c(Cl)c1` [Compound 66], the “Em effect: ratio of the compound effect” value in assay [1] is “+ (0-1 = +)”.

On to `CC(C)(C)c1ccc(CNc2cccc(NCc3ccc(C(C)(C)C)cc3)c2)cc1` [Compound 36, N,N′-bis-(4-tert-butylbenzyl)-benzene-1,3-diamine], for which, in assay [1], the “Em effect: ratio of the compound effect” value is “++ (>1-1.5 = ++)”.

Regarding `Clc1cc(NCc2ccc(-c3csnn3)cc2)cc(Cl)c1NCc1ccc(-c2csnn2)cc1` [Compound 91], in assay [1], the “Em effect: ratio of the compound effect” value is “+ (0-1 = +)”.

`Brc1ccc(CNc2cccc(NCc3ccc(Br)cc3)c2)cc1` [Compound 12]: the “Em effect: ratio of the compound effect” value in assay [1] is “+ (0-1 = +)”. Also, in assay [2], the “Effect: ratio of current increase after application of compound relative to the control current before compound application” value was “+ (1-1.1 = +)”.

Regarding `CC(C)(C)c1ccc(CNc2cccc(NCc3ccc(-c4csnn4)cc3)c2)cc1` [Compound 41], the “Em effect: ratio of the compound effect” value in assay [1] is reported as “+ (0-1 = +)”.

Turning to `FC(F)(F)c1ccccc1CNc1cccc(NCc2ccccc2C(F)(F)F)c1` [Compound 39], the “Em effect: ratio of the compound effect” value in assay [1] was “++ (>1-1.5 = ++)”.

As for `COc1cccc(CNc2cccc(NCc3csc4ccc(Cl)cc34)c2)c1` [Compound 56, N-(5-chlorobenzo[b]thiophen-3-ylmethyl)-N′-(3-methoxybenzyl)-benzene-1,3diamine], in assay [1], the “Em effect: ratio of the compound effect” value was “+ (0-1 = +)”.

With `Fc1cccc(CNc2cccc(NCc3ccc(-c4csnn4)cc3)c2)c1` [Compound 44, N-(3-fluoro-benzyl)-N′-(4-[1,2,3]thiadiazol-4-yl-benzyl)-benzene-1,3-diamine], the “Em effect: ratio of the compound effect” value in assay [1] was “+ (0-1 = +)”.

Take `COc1cccc(CNc2cc(NCc3cccc(Cl)c3)cc(C(F)(F)F)c2)c1` [Compound 82]: the “Em effect: ratio of the compound effect” value in assay [1] was “+ (0-1 = +)”.

As for `O=[N+]([O-])c1ccc(CNc2cccc(NCc3ccc(F)cc3)c2)o1` [Compound 46], the “Em effect: ratio of the compound effect” value in assay [1] is given as “++ (>1-1.5 = ++)”.

As to `Clc1cccc(CNc2ccc(NCc3ccc4ccccc4c3)c(Cl)c2)c1` [Compound 22], the “Em effect: ratio of the compound effect” value in assay [1] was “+ (0-1 = +)”.

For `Fc1cc(F)cc(CNc2cccc(NCc3ccc(-c4csnn4)cc3)c2)c1` [Compound 53, N-(3,5-difluorobenzyl)-N′-(4-[1,2,3]thiadiazol-4-yl-benzyl)-benzene-1,3-diamine], the “Em effect: ratio of the compound effect” value in assay [1] is listed as “+ (0-1 = +)”.

Take `Cc1cc(NCc2ccc(F)cc2F)ccc1NCc1ccc(F)cc1F` [Compound 102, N^1,N^4-bis-(2,4-difluorobenzyl)-2-methylbenzene-1,4-diamine]: the “Em effect: ratio of the compound effect” value in assay [1] was “+ (0-1 = +)”.

Consider `FC(F)(F)c1ccccc1CNc1ccc(NCc2ccccc2C(F)(F)F)c(Cl)c1` [Compound 104, 2-chloro-N^1,N^4-bis-(2-trifluoromethylbenzyl)-benzene-1,4-diamine], for which the “Em effect: ratio of the compound effect” value in assay [1] is “+ (0-1 = +)”.

As to `FC(F)(F)c1cc(NCc2ccc3ccccc3c2)cc(NCc2ccc3ccccc3c2)c1` [Compound 4], the “Em effect: ratio of the compound effect” value in assay [1] is reported as “+ (0-1 = +)”.

Turning to `O=[N+]([O-])c1ccc(CNc2ccc(NCc3cccc(Cl)c3)cc2Cl)cc1` [Compound 24], the “Em effect: ratio of the compound effect” value in assay [1] is recorded as “+ (0-1 = +)”.

As for `N#Cc1cccc(CNc2cccc(NCc3ccc(C(F)(F)F)cc3)c2)c1` [Compound 68], the “Em effect: ratio of the compound effect” value in assay [1] is recorded as “+ (0-1 = +)”.

Turning to `Fc1ccc(CNc2cccc(NCc3cccc(Cl)c3)c2)c(F)c1` [Compound 55, N-(3-chlorobenzyl)-N′-(2,4-difluorobenzyl)-benzene-1,3-diamine], in assay [1], the “Em effect: ratio of the compound effect” value is reported as “+ (0-1 = +)”.

Regarding `Fc1cccc(CNc2cccc(NCc3ccccc3Cl)c2)c1` [Compound 48], the “Em effect: ratio of the compound effect” value in assay [1] is on record as “+ (0-1 = +)”.

For `FC(F)(F)c1ccccc1CNc1ccc(NCc2ccccc2C(F)(F)F)cc1` [Compound 97], in assay [1], the “Em effect: ratio of the compound effect” value was “+ (0-1 = +)”.

In the case of `c1ccc(CNc2cccc(NCc3ccccc3)c2)cc1` [Compound 9, N,N′-Dibenzylbenzene-1,3-diamine], the “Em effect: ratio of the compound effect” value in assay [1] is reported as “+ (0-1 = +)”.

As to `FC(F)(F)c1ccccc1CNc1cccc(NCc2csc3ccc(Cl)cc23)c1` [Compound 62], the “Em effect: ratio of the compound effect” value in assay [1] was “+ (0-1 = +)”.

For `CC(C)(C)c1ccc(CNc2cccc(NCc3csc4ccc(Cl)cc34)c2)cc1` [Compound 40], the “Em effect: ratio of the compound effect” value in assay [1] is recorded as “+ (0-1 = +)”.

Take `Cc1cc(NCc2ccc(Br)cc2)ccc1NCc1ccc(Br)cc1` [Compound 18]: the “Em effect: ratio of the compound effect” value in assay [1] is given as “+ (0-1 = +)”.
